Assay results taken from ChEMBL document CHEMBL1201862, “PubChem BioAssay data set” (2004).
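Five compound concentrations were applied to cells in 96-well plates for 48 hours; endpoints were derived by simple linear interpolation of the resulting dose-response curve. The concentration for 50% growth inhibition is given as GI50.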 Activity calls are given as the source filed them. No stated cut-off is given here; in the data, active = GI50 up to about 1.1 µM and inactive = higher.

What was measured:
Assay in all cases: DTP human tumour cell line panel, 48 h
NCI-H522 = test system: NCI-H522
SK-MEL-28 = test system: SK-MEL-28
M14 = test system: M14
MDA-MB-435 = test system: MDA-MB-435
SNB-75 = test system: SNB-75
SF-268 = test system: SF-268
A498 = test system: A498
KM12 = test system: KM12
HL-60 = test system: HL-60
COLO 205 = test system: COLO 205
SK-MEL-2 = test system: SK-MEL-2
SW-620 = test system: SW-620
SF-539 = test system: SF-539
SR = test system: SR
UACC-62 = test system: UACC-62
HCT-116 = test system: HCT-116
NCI-H23 = test system: NCI-H23
HOP-62 = test system: HOP-62
ACHN = test system: ACHN

Compound | GI50 (NCI-H522) | GI50 (SK-MEL-28) | GI50 (M14) | GI50 (MDA-MB-435) | GI50 (SNB-75) | GI50 (SF-268) | GI50 (A498) | GI50 (KM12) | GI50 (HL-60) | GI50 (COLO 205) | GI50 (SK-MEL-2) | GI50 (SW-620) | GI50 (SF-539) | GI50 (SR) | GI50 (UACC-62) | GI50 (HCT-116) | GI50 (NCI-H23) | GI50 (HOP-62) | GI50 (ACHN)
O=c1[nH][nH]c(=O)n1Cc1ccccc1 | > 100 µM (inactive) | > 100 µM (inactive) | > 100 µM (inactive) | > 100 µM (inactive) | > 100 µM (inactive) | > 100 µM (inactive) | > 100 µM (inactive) | > 100 µM (inactive) | > 100 µM (inactive) | > 100 µM (inactive) | > 100 µM (inactive) | > 100 µM (inactive) | > 100 µM (inactive) | > 100 µM (inactive) | > 100 µM (inactive) | > 100 µM (inactive) | > 100 µM (inactive) | – | –
O=[N+]([O-])/C(Cl)=C/C(=C1/Nc2ccccc2O1)[N+](=O)[O-] | 13.5 µM (inactive) | 19.5 µM (inactive) | 19.8 µM (inactive) | 15.9 µM (inactive) | 14.1 µM (inactive) | 16.3 µM (inactive) | 19 µM (inactive) | 19.2 µM (inactive) | 11.6 µM (inactive) | 21.2 µM (inactive) | – | 32.7 µM (inactive) | 15.5 µM (inactive) | 8.71 µM (inactive) | 23.4 µM (inactive) | 13.9 µM (inactive) | 17.8 µM (inactive) | 33.7 µM (inactive) | 18.1 µM (inactive)
CC(C)(O)CO/N=C1\C(=C2\C(=O)Nc3ccccc32)Nc2ccccc21 | 1.87 µM (inactive) | 2.38 µM (inactive) | 0.474 µM (active) | 0.794 µM (active) | 0.811 µM (active) | 2.33 µM (inactive) | 0.187 µM (active) | < 0.01 µM (active) | 0.74 µM (active) | 0.615 µM (active) | 0.232 µM (active) | 0.811 µM (active) | 2.71 µM (inactive) | 0.594 µM (active) | 0.728 µM (active) | 6.28 µM (inactive) | 1.18 µM (inactive) | 2.1 µM (inactive) | 0.426 µM (active)
COc1ccc(-c2nnc3n(Cc4ccccc4)c4ccccc4n3c2=O)cc1 | 17.3 µM (inactive) | 36.4 µM (inactive) | 77.6 µM (inactive) | 4.76 µM (inactive) | 11.9 µM (inactive) | 22.7 µM (inactive) | 22.7 µM (inactive) | > 100 µM (inactive) | > 100 µM (inactive) | > 100 µM (inactive) | 14.8 µM (inactive) | > 100 µM (inactive) | 13.2 µM (inactive) | > 100 µM (inactive) | – | 38.7 µM (inactive) | 31.3 µM (inactive) | 1.92 µM (inactive) | 15.2 µM (inactive)
NCCCc1c(-c2ccccc2)[nH]c(N)nc1=O | > 100 µM (inactive) | > 100 µM (inactive) | > 100 µM (inactive) | > 100 µM (inactive) | > 100 µM (inactive) | > 100 µM (inactive) | > 100 µM (inactive) | > 100 µM (inactive) | > 100 µM (inactive) | > 100 µM (inactive) | > 100 µM (inactive) | > 100 µM (inactive) | > 100 µM (inactive) | > 100 µM (inactive) | > 100 µM (inactive) | > 100 µM (inactive) | > 100 µM (inactive) | > 100 µM (inactive) | > 100 µM (inactive)
COc1cccc(-c2cc(O)c3c(C)ccnc3n2)c1 | 0.0275 µM (active) | – | 0.0239 µM (active) | < 0.01 µM (active) | 0.0143 µM (active) | 0.0439 µM (active) | 0.0344 µM (active) | 0.0257 µM (active) | < 0.0114 µM (active) | 0.0199 µM (active) | 0.0695 µM (active) | < 0.0177 µM (active) | 0.0272 µM (active) | < 0.01 µM (active) | 0.0267 µM (active) | 0.0392 µM (active) | 0.0625 µM (active) | 0.0463 µM (active) | 0.0483 µM (active)
CN(C)CCNC(=O)c1ccc2nc3c(nc2c1)C(=O)c1ccccc1-3 | 30.9 µM (inactive) | > 100 µM (inactive) | > 100 µM (inactive) | 26 µM (inactive) | 30.5 µM (inactive) | 33.5 µM (inactive) | > 100 µM (inactive) | 81.8 µM (inactive) | 19.1 µM (inactive) | 34.6 µM (inactive) | – | 34.2 µM (inactive) | 60.8 µM (inactive) | 18.1 µM (inactive) | 46.5 µM (inactive) | 45.9 µM (inactive) | 48.5 µM (inactive) | 29 µM (inactive) | 47.1 µM (inactive)
Nc1ncc(N)c(NCC2(CO)CC(CCc3ccccc3)C2)n1 (centres undefined) | 0.718 µM (active) | 14.4 µM (inactive) | 11.4 µM (inactive) | 11 µM (inactive) | 12.6 µM (inactive) | 5.58 µM (inactive) | 13.5 µM (inactive) | 10 µM (inactive) | 0.12 µM (active) | 3.71 µM (inactive) | 6.95 µM (inactive) | 9.98 µM (inactive) | 2.7 µM (inactive) | 1.08 µM (active) | 5.81 µM (inactive) | 6.55 µM (inactive) | 5.13 µM (inactive) | 14.7 µM (inactive) | 12.1 µM (inactive)
N=C(N)C1CN(CCc2c[nH]cn2)C(=O)NC1=O (centres undefined) | > 100 µM (inactive) | > 100 µM (inactive) | > 100 µM (inactive) | > 100 µM (inactive) | > 100 µM (inactive) | > 100 µM (inactive) | > 100 µM (inactive) | > 100 µM (inactive) | > 100 µM (inactive) | > 100 µM (inactive) | – | > 100 µM (inactive) | > 100 µM (inactive) | > 100 µM (inactive) | > 100 µM (inactive) | > 100 µM (inactive) | > 100 µM (inactive) | > 100 µM (inactive) | > 100 µM (inactive)
O=C(CCc1ccccc1CO)NCCc1ccccc1 | > 100 µM (inactive) | > 100 µM (inactive) | > 100 µM (inactive) | > 100 µM (inactive) | 49.1 µM (inactive) | > 100 µM (inactive) | > 100 µM (inactive) | > 100 µM (inactive) | 72.4 µM (inactive) | > 100 µM (inactive) | > 100 µM (inactive) | > 100 µM (inactive) | > 100 µM (inactive) | > 100 µM (inactive) | > 100 µM (inactive) | > 100 µM (inactive) | > 100 µM (inactive) | > 100 µM (inactive) | > 100 µM (inactive)
CC(=O)CC1CCC(=O)/C=C/C(=O)OC(CC(C)=O)CCC(=O)/C=C/C(=O)O1 (centres undefined) | 1.14 µM (inactive) | 7.33 µM (inactive) | 3.7 µM (inactive) | 17 µM (inactive) | 12.8 µM (inactive) | 25.9 µM (inactive) | 18.3 µM (inactive) | 20.8 µM (inactive) | 2.45 µM (inactive) | 1.77 µM (inactive) | 6.61 µM (inactive) | 1.67 µM (inactive) | 19.3 µM (inactive) | 2.23 µM (inactive) | 14.6 µM (inactive) | 4.1 µM (inactive) | 17.5 µM (inactive) | 23.3 µM (inactive) | 3.44 µM (inactive)
Nc1c(S(=O)(=O)O)cc(Nc2cccc(S(N)(=O)=O)c2)c2c1C(=O)c1ccccc1C2=O | 57.8 µM (inactive) | > 100 µM (inactive) | 50.6 µM (inactive) | 17.7 µM (inactive) | 29.6 µM (inactive) | > 100 µM (inactive) | > 100 µM (inactive) | 71.6 µM (inactive) | > 100 µM (inactive) | 38.1 µM (inactive) | 75.7 µM (inactive) | 74.5 µM (inactive) | > 100 µM (inactive) | > 100 µM (inactive) | 24.2 µM (inactive) | > 100 µM (inactive) | 35.1 µM (inactive) | 23.4 µM (inactive) | > 100 µM (inactive)
CC[C@@]1(O)C(=O)OCc2c1cc1n(c2=O)Cc2c-1nc1ccccc1c2/C=N\NC(=O)C[n+]1ccccc1 | 0.991 µM (active) | 3.29 µM (inactive) | 0.457 µM (active) | 3.56 µM (inactive) | 0.23 µM (active) | 0.115 µM (active) | 2.78 µM (inactive) | 8.55 µM (inactive) | 0.225 µM (active) | 12.1 µM (inactive) | 37.6 µM (inactive) | 1.33 µM (inactive) | 0.0752 µM (active) | 0.0411 µM (active) | 0.0541 µM (active) | 0.783 µM (active) | 0.388 µM (active) | 0.164 µM (active) | 0.0531 µM (active)
O=C(NNC(=S)Nc1ccc(Cl)cc1)C12CC3CC(CC(C3)C1)C2 | 3.58 µM (inactive) | 14.8 µM (inactive) | 7.74 µM (inactive) | 7.53 µM (inactive) | 15.6 µM (inactive) | 6.05 µM (inactive) | 4.82 µM (inactive) | 9.84 µM (inactive) | 1.68 µM (inactive) | 3.32 µM (inactive) | 14.3 µM (inactive) | 3.76 µM (inactive) | 3.93 µM (inactive) | 1.04 µM (active) | 3.88 µM (inactive) | 2.57 µM (inactive) | 7.5 µM (inactive) | 11.2 µM (inactive) | 4.19 µM (inactive)
